The source of these data is ChEMBL document CHEMBL4507311, “Data for DCP probe A-1155463” (2021).

Experiment [1] deals with Casein kinase I isoform gamma-3 (Homo sapiens) (UniProt Q9Y6M4). The following applies: Compound concentration 1000.0 nM.
Experiment [2] has as its system Tyrosine-protein kinase ABL1 (Homo sapiens), P00519 [Y253F]. The note with it: Compound concentration 1000.0 nM.
For experiment [3], the target named is Hormonally up-regulated neu tumor-associated kinase (Homo sapiens) (UniProt P57058). The note with it: Compound concentration 1000.0 nM.
Hormonally up-regulated neu tumor-associated kinase (Homo sapiens), sequence (P57058 whole entry, canonical isoform): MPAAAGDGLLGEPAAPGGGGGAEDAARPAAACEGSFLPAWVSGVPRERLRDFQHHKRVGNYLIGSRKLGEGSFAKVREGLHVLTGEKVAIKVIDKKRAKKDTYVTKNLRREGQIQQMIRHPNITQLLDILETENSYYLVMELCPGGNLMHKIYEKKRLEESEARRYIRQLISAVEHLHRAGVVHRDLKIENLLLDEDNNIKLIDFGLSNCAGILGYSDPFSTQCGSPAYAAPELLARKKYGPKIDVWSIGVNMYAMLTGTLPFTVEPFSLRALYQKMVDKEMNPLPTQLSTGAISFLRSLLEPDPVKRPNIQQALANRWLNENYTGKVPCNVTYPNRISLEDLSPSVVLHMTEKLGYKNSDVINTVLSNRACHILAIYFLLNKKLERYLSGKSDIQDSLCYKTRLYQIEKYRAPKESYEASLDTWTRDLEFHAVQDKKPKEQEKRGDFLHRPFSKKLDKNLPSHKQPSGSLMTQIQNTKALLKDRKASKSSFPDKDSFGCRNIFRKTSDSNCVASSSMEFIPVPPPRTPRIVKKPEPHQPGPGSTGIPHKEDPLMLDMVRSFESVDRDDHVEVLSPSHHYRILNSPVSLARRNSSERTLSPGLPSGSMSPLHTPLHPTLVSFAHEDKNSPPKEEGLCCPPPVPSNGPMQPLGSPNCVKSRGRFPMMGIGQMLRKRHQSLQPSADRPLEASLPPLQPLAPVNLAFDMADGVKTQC
In experiment [4] the target is Phosphatidylinositol 4,5-bisphosphate 3-kinase catalytic subunit alpha isoform (Homo sapiens) (UniProt P42336). The following applies: Compound concentration 1000.0 nM.
Experiment [5] deals with NT-3 growth factor receptor (Homo sapiens) (UniProt Q16288). The note with it: Compound concentration 1000.0 nM.
Experiment [6] addresses Platelet-derived growth factor receptor alpha (Homo sapiens) (UniProt P16234). The following applies: Compound concentration 1000.0 nM.
In experiment [7] the target is Cyclin-dependent kinase 7 (Homo sapiens) (UniProt P50613). The note with it: Compound concentration 1000.0 nM.
For experiment [8], the target named is Tyrosine-protein kinase CSK (Homo sapiens) (UniProt P41240). The following applies: Compound concentration 1000.0 nM.
Experiment [9] has as its system Tyrosine-protein kinase ABL1 (Homo sapiens), P00519 [F317L]. The note with it: Compound concentration 1000.0 nM.
Experiment [10] deals with RAC-gamma serine/threonine-protein kinase (Homo sapiens) (UniProt Q9Y243). The following applies: Compound concentration 1000.0 nM.
Experiment [11] concerns the target Ephrin type-B receptor 1 (Homo sapiens) (UniProt P54762). The following applies: Compound concentration 1000.0 nM.
Experiment [12] addresses Activin receptor type-1-like (Homo sapiens) (UniProt P37023). The note with it: Compound concentration 1000.0 nM.
Experiment [13] addresses Serine/threonine-protein kinase 25 (Homo sapiens) (UniProt O00506). The following applies: Compound concentration 1000.0 nM.
For experiment [14], the target named is Tyrosine-protein kinase Yes (Homo sapiens) (UniProt P07947). The following applies: Compound concentration 1000.0 nM.
Tyrosine-protein kinase Yes (Homo sapiens), sequence (P07947 2-543 limits assumed): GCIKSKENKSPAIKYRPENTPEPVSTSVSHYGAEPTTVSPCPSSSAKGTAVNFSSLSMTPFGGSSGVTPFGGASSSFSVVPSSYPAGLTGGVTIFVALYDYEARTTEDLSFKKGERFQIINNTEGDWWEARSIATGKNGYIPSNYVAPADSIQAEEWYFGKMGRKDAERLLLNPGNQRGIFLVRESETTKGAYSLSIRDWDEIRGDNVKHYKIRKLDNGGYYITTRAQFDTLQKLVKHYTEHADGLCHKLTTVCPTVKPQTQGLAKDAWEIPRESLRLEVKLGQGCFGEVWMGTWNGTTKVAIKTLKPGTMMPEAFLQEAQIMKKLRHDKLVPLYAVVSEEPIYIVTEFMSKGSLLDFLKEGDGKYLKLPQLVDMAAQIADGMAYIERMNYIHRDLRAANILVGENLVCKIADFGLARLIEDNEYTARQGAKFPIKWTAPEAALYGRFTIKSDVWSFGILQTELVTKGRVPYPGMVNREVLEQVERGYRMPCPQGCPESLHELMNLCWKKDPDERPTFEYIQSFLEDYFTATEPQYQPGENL
For experiment [15], the target named is T1, 5-hydroxytryptamine receptor 2C (Homo sapiens) (UniProt P28335).
T1 sequence (whole entry): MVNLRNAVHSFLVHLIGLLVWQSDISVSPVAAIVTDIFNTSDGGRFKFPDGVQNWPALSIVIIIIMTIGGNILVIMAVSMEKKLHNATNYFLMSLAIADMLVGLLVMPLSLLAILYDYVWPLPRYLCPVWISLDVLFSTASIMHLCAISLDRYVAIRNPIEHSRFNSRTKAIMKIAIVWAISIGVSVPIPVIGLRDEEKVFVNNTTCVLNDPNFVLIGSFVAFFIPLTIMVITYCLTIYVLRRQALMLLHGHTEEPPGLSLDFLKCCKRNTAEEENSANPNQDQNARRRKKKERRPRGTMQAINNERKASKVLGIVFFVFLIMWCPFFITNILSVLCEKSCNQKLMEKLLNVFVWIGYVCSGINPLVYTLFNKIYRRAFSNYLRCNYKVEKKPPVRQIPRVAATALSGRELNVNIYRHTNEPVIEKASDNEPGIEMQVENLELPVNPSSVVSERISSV
Nature of the experiment: 5-HT2C (h) Eurofins-Cerep binding assay. On the set-up: ligand concentration 1 nM. The following applies: filed as antagonist, Compound concentration 10.0 uM.

Experiment [16] addresses Phosphatidylinositol 3-kinase catalytic subunit type 3 (Homo sapiens) (UniProt Q8NEB9). The note with it: Compound concentration 1000.0 nM.
The target of experiment [17] is Serine/threonine-protein kinase MARK1 (Homo sapiens) (UniProt Q9P0L2). The note with it: Compound concentration 1000.0 nM.
Serine/threonine-protein kinase MARK1 (Homo sapiens), sequence (Q9P0L2 whole entry, looked up): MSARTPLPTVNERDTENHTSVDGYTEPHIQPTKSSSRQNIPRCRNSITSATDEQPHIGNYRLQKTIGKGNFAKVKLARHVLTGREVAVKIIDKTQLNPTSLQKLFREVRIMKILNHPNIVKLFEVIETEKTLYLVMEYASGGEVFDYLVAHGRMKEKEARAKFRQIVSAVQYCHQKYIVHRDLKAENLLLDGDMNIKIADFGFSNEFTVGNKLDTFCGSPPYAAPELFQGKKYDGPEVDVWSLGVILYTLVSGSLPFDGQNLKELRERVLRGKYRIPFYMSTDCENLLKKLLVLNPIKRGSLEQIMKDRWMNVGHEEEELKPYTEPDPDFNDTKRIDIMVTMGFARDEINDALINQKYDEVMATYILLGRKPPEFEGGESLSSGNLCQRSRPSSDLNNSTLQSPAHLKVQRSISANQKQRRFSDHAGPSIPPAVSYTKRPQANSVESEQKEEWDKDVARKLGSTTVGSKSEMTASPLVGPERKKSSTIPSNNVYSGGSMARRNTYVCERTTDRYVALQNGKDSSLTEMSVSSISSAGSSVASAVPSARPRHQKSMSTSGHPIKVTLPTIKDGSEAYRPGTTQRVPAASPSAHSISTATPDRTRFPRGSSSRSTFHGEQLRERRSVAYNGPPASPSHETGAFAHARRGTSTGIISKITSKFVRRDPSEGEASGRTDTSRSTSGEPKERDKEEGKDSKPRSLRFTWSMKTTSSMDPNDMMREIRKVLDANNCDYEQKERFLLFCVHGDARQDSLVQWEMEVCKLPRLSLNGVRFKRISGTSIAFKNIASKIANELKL
The target in experiment [18] is Receptor-interacting serine/threonine-protein kinase 4 (Homo sapiens) (UniProt P57078). The following applies: Compound concentration 1000.0 nM.
The target in experiment [19] is SNF-related serine/threonine-protein kinase (Homo sapiens) (UniProt Q9NRH2). The note with it: Compound concentration 1000.0 nM.
Experiment [20] concerns the target Bone morphogenetic protein receptor type-1A (Homo sapiens) (UniProt P36894). The note with it: Compound concentration 1000.0 nM.
Experiment [21] has as its target Type-1 angiotensin II receptor (Homo sapiens) (UniProt P30556). In words: AT1 (h) Eurofins-Cerep binding assay. The following applies: filed as antagonist, Compound concentration 10.0 uM. On the set-up: ligand concentration 0.05 nM.
Experiment [22] concerns the target Interleukin-1 receptor-associated kinase 1 (Homo sapiens) (UniProt P51617). The note with it: Compound concentration 1000.0 nM.
Experiment [23] concerns the target Dual specificity mitogen-activated protein kinase kinase 5 (Homo sapiens) (UniProt Q13163). The following applies: Compound concentration 1000.0 nM.
Experiment [24] concerns the target Mitogen-activated protein kinase 11 (Homo sapiens) (UniProt Q15759). The note with it: Compound concentration 1000.0 nM.
The target in experiment [25] is Aurora kinase A (Homo sapiens) (UniProt O14965). The note with it: Compound concentration 1000.0 nM.
Experiment [26] deals with Cyclin-dependent kinase-like 5 (Homo sapiens) (UniProt O76039). The note with it: Compound concentration 1000.0 nM.
In experiment [27] the target is Ribosomal protein S6 kinase alpha-3 (Homo sapiens) (UniProt P51812). The note with it: Compound concentration 1000.0 nM.
In experiment [28] the target is Serine/threonine-protein kinase Sgk2 (Homo sapiens) (UniProt Q9HBY8). The note with it: Compound concentration 1000.0 nM.
The target in experiment [29] is Calcium/calmodulin-dependent protein kinase type IV (Homo sapiens) (UniProt Q16566). The following applies: Compound concentration 1000.0 nM.
The target of experiment [30] is Alpha-1A adrenergic receptor (Homo sapiens) (UniProt P35348). Nature of the experiment: Alpha1A (h) Eurofins-Cerep binding assay. On the set-up: ligand concentration 0.1 nM. The following applies: filed as antagonist, Compound concentration 10.0 uM.
Alpha-1A adrenergic receptor (Homo sapiens), sequence (P35348 whole entry): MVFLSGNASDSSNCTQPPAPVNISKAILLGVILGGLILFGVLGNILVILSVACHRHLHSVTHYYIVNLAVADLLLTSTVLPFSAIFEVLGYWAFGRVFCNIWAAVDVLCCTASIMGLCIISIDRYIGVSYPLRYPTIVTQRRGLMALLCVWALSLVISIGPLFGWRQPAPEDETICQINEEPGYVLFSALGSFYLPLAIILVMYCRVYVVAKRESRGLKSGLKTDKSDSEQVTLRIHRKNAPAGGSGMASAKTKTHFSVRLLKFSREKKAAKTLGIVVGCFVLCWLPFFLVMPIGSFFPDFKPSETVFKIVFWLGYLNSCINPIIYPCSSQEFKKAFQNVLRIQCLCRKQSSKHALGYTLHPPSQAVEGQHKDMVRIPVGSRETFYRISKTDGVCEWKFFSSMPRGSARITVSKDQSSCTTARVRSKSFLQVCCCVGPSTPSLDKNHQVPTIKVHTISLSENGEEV
The target in experiment [31] is GABA-A receptor; alpha-1/beta-2/gamma-2 (Homo sapiens) (UniProt P14867+P47870+P18507). Nature of the experiment: GABAA1 (h) (alpha1,beta2,gamma2) Eurofins-Cerep binding assay. Format: protein-complex assay. More on the design: ligand concentration 15 nM. The following applies: filed as agonist, Compound concentration 10.0 uM.
The target of experiment [32] is STE20-like serine/threonine-protein kinase (Homo sapiens) (UniProt Q9H2G2). The following applies: Compound concentration 1000.0 nM.
Experiment [33] has as its target Serine/threonine-protein kinase RIO3 (Homo sapiens) (UniProt O14730). The note with it: Compound concentration 1000.0 nM.
Experiment [34] relates to Tyrosine-protein kinase ABL1 (Homo sapiens), P00519 [Q252H]. The following applies: Compound concentration 1000.0 nM.
Experiment [35] concerns the target Serine/threonine-protein kinase Nek11 (Homo sapiens) (UniProt Q8NG66). The following applies: Compound concentration 1000.0 nM.
Experiment [36] deals with Ephrin type-A receptor 7 (Homo sapiens) (UniProt Q15375). The following applies: Compound concentration 1000.0 nM.
Experiment [37] concerns the target Protein kinase C delta type (Homo sapiens) (UniProt Q05655). The following applies: Compound concentration 1000.0 nM.
The target of experiment [38] is Serine/threonine-protein kinase ICK (Homo sapiens) (UniProt Q9UPZ9). The following applies: Compound concentration 1000.0 nM.

Type-1 angiotensin II receptor (Homo sapiens), sequence (P30556 whole entry): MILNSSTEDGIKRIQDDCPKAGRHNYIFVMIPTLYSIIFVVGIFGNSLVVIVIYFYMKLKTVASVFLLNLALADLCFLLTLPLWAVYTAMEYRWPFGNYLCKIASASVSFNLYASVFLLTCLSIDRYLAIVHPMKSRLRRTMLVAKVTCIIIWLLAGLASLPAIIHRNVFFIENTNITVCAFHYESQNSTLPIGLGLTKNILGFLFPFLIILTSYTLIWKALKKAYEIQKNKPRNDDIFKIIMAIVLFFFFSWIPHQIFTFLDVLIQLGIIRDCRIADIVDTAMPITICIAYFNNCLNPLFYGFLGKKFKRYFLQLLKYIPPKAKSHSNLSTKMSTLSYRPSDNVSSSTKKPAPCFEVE
Mitogen-activated protein kinase 11 (Homo sapiens), sequence (Q15759 whole entry): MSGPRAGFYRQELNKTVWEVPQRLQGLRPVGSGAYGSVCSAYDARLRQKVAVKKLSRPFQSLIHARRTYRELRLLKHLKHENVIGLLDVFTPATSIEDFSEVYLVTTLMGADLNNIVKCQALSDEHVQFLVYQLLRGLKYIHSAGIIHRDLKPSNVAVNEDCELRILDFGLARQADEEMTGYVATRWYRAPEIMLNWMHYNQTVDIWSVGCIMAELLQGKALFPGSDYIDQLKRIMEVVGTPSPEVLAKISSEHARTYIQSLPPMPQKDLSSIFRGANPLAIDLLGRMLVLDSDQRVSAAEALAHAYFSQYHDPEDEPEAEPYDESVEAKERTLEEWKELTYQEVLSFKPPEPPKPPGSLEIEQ
Platelet-derived growth factor receptor alpha (Homo sapiens), sequence (P16234 whole entry): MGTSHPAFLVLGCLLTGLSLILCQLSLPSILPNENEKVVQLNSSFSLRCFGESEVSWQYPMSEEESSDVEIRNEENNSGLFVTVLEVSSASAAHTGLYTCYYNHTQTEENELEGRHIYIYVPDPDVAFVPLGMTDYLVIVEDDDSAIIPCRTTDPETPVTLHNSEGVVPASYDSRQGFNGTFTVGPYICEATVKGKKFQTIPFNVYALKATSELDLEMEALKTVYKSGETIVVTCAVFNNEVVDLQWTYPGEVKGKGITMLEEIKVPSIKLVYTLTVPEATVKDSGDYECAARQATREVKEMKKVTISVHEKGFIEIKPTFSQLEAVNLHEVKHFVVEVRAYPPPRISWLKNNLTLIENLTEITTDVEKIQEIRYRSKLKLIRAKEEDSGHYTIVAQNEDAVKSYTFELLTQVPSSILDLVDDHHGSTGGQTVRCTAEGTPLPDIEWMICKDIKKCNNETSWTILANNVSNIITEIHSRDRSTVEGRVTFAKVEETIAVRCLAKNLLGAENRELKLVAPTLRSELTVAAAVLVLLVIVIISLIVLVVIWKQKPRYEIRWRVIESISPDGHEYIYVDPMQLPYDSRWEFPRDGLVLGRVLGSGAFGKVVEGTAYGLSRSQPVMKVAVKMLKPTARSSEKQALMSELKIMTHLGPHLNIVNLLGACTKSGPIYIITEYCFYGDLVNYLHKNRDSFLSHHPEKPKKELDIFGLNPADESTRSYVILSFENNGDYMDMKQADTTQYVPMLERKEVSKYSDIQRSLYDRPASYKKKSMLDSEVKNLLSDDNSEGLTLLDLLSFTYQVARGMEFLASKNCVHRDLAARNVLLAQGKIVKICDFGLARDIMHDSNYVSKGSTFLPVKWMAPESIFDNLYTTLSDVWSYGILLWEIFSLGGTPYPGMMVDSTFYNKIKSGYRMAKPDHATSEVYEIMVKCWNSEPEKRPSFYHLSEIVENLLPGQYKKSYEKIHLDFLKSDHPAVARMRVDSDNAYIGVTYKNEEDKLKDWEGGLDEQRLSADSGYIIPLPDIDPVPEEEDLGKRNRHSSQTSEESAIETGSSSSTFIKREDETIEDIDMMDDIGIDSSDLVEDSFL
Protein kinase C delta type (Homo sapiens), sequence (Q05655 whole entry, looked up): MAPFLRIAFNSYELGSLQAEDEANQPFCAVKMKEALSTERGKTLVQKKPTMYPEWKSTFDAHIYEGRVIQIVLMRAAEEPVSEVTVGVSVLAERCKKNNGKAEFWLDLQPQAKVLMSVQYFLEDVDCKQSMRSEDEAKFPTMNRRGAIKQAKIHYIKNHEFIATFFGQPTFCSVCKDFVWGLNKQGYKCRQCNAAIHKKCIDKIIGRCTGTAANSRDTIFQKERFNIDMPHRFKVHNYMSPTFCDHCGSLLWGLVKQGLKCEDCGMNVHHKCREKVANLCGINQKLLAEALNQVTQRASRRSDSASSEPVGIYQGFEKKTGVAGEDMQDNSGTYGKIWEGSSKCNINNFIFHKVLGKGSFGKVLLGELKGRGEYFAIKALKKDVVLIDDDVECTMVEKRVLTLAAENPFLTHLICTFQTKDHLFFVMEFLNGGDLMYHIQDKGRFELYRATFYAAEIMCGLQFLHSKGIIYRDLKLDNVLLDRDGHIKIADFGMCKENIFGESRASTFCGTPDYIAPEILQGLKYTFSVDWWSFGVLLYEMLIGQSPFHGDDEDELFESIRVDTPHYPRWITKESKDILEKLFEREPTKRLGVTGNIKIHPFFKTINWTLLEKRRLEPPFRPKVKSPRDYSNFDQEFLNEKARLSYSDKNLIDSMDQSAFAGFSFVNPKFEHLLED

For `CN(C)CC#Cc1ccc(OCCCc2sc(N3CCc4cccc(C(=O)Nc5nc6ccccc6s5)c4C3)nc2C(=O)O)c(F)c1` [A-1155463], the residual activity in experiment [1] was 100%; in [2] it was 93%; in [3] it was 56%; in [4], 89%; in experiment [5], 100%; in experiment [6], 100%. Moreover, the residual activity in [7] is 100%; in [8] it was 90%; in experiment [9], 100%; in experiment [10], 100%; in experiment [11] it was 100%; in experiment [12] it was 82%. Besides, the residual activity in experiment [13] is 100%; in experiment [14], 100%; in experiment [16] it was 100%; in experiment [17], 93%; in experiment [18], 100%; in experiment [19], 100%. Further, the residual activity in experiment [20] is 99%; in experiment [22], 100%; in experiment [23], 100%; in experiment [24] it was 100%; in experiment [25], 92%; in [26], 96%. Further, the residual activity in [27] is 100%; in [28], 100%; in experiment [29], 98%; in experiment [32], 100%; in [33] it was 86%; in experiment [34], 94%. The residual activity in [35] is 100%; in experiment [36] it was 99%; in [37] it was 100%; in experiment [38] it was 100%. Moreover, the % Inhibition of Control Specific Binding (Mean n=2) in experiment [15] is 4.7%; in experiment [21], 20.5%; in experiment [30], 6.7%; in [31], -2.9%.

With `O=C(Nc1nc2ccccc2s1)c1cccc2c1CN(c1nc(C(=O)O)c(CCOc3ccc(-n4ncc5cncnc54)cc3)s1)CC2` [A-1107969], the % Inhibition of Control Specific Binding (Mean n=2) was 1.7% in [15], -3.5% in [21], -6.1% in [30] and -19.5% in experiment [31].
